Experimental data as given in ChEMBL document CHEMBL1139922, “Discovery and structure-activity relationship studies of indole derivatives as liver X receptor (LXR) agonists” (Bioorg Med Chem Lett, 2007).
pEC50: −log10 of the molar value.

Assays:
[1] = target: T1, Oxysterols receptor LXR-beta (Homo sapiens, UniProt P55055); assay: Agonist activity at LXRbeta LBD by HTRF cofactor peptide recruitment assay; type: functional
T1 sequence (P55055 whole entry): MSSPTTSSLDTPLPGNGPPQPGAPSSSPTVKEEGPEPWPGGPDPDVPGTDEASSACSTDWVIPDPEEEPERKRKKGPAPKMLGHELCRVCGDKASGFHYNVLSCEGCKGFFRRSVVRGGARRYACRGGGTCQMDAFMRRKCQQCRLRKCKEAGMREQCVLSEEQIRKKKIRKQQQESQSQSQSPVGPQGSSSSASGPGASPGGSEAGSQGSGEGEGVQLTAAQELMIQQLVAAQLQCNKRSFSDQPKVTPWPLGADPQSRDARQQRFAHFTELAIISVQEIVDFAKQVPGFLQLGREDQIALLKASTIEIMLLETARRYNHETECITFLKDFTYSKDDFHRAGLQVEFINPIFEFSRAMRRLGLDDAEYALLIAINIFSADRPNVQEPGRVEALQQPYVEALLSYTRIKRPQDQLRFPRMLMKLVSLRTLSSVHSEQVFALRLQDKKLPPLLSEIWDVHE

[2] = test system: THP-1; assay: Induction of cholesterol efflux in THP1 cells after 18 hrs; type: functional, cell-based; conditions: Homo sapiens, THP-1, 18 h

SMILES	pEC50 [1]	pEC50 [2]
CC(C)(C)OC(=O)n1c(-c2ccc3c(c2)CC(NS(=O)(=O)c2ccccc2)C3)cc2cc(O)ccc21 (stereo not drawn)	< 4.52	–
CC(C)(C)OC(=O)n1c(-c2ccc3c(c2)CC(NS(=O)(=O)c2ccccc2)C3)cc2cc(F)ccc21 (stereo not drawn)	5.82	–
Cc1ccc2c(c1)cc(-c1ccc3c(c1)CC(NS(=O)(=O)c1ccccc1)C3)n2C(=O)OC(C)(C)C (stereo not drawn)	4.74	–
CC(C)(C)OC(=O)n1c(-c2ccc3c(c2)CC(NS(=O)(=O)c2ccccc2)C3)cc2ccc(O)cc21 (stereo not drawn)	6.17	–
CC(C)(C)OC(=O)n1c(-c2ccc3c(c2)C[C@H](NS(=O)(=O)c2ccccc2)C3)cc2ccccc21	6.18	–
CC(C)(C)OC(=O)n1c(-c2ccc3c(c2)C[C@@H](NS(=O)(=O)c2ccccc2)C3)cc2ccccc21	6.89	–
O=S(=O)(NC1Cc2ccc(-c3cc4ccccc4[nH]3)cc2C1)c1ccccc1 (stereo not drawn)	< 4.52	–
CCOC(=O)n1c(-c2ccc3c(c2)CC(NS(=O)(=O)c2ccccc2)C3)cc2ccccc21 (stereo not drawn)	5.80	–
CC(C)CCOC(=O)n1c(-c2ccc3c(c2)CC(NS(=O)(=O)c2ccccc2)C3)cc2ccccc21 (stereo not drawn)	5.89	–
CCCCC(C)COC(=O)n1c(-c2ccc3c(c2)CC(NS(=O)(=O)c2ccccc2)C3)cc2ccccc21 (stereo not drawn)	< 4.52	–
O=S(=O)(NC1Cc2ccc(-c3cc4ccccc4n3S(=O)(=O)c3ccccc3)cc2C1)c1ccccc1 (stereo not drawn)	< 4.52	–
O=C(C1CCCC1)n1c(-c2ccc3c(c2)CC(NS(=O)(=O)c2ccccc2)C3)cc2ccccc21 (stereo not drawn)	6.05	–
CC(C)(C)CC(=O)n1c(-c2ccc3c(c2)CC(NS(=O)(=O)c2ccccc2)C3)cc2ccccc21 (stereo not drawn)	< 4.52	–
Cn1c(-c2ccc3c(c2)CC(NS(=O)(=O)c2ccccc2)C3)cc2ccccc21 (stereo not drawn)	< 4.52	–
CC(C)(C)OC(=O)Cn1c(-c2ccc3c(c2)CC(NS(=O)(=O)c2ccccc2)C3)cc2ccccc21 (stereo not drawn)	< 4.52	–
O=S(=O)(NC1Cc2ccc(-c3cc4ccccc4n3CCCOCc3ccccc3)cc2C1)c1ccccc1 (stereo not drawn)	< 4.52	–
O=S(=O)(NC1Cc2ccc(-c3cc4ccccc4n3CCc3ccccc3)cc2C1)c1ccccc1 (stereo not drawn)	< 5.00	–
CC(C)(C)OC(=O)n1c(-c2ccc3c(c2)CC(NS(=O)(=O)c2ccc(-c4ccccc4)cc2)C3)cc2ccccc21 (stereo not drawn)	5.68	–
CC(C)(C)OC(=O)n1c(-c2ccc3c(c2)CC(NS(=O)(=O)c2ccc(Cl)cc2)C3)cc2ccccc21 (stereo not drawn)	5.94	–
Cc1ccc(S(=O)(=O)NC2Cc3ccc(-c4cc5ccccc5n4C(=O)OC(C)(C)C)cc3C2)cc1 (stereo not drawn)	6.37	–

SMILES	pEC50 [1]	pEC50 [2]
CC(C)(C)OC(=O)n1c(-c2ccc3c(c2)CC(NS(=O)(=O)c2ccc(C(F)(F)F)cc2)C3)cc2ccccc21 (stereo not drawn)	6.14	–
Cc1cccc(S(=O)(=O)NC2Cc3ccc(-c4cc5ccccc5n4C(=O)OC(C)(C)C)cc3C2)c1 (stereo not drawn)	5.88	–
COc1cccc(S(=O)(=O)NC2Cc3ccc(-c4cc5ccccc5n4C(=O)OC(C)(C)C)cc3C2)c1 (stereo not drawn)	6.02	–
CC(C)(C)OC(=O)n1c(-c2ccc3c(c2)CC(NS(=O)(=O)c2cccc(C#N)c2)C3)cc2ccccc21 (stereo not drawn)	6.34	–
COC(=O)c1ccccc1S(=O)(=O)NC1Cc2ccc(-c3cc4ccccc4n3C(=O)OC(C)(C)C)cc2C1 (stereo not drawn)	6.22	–
CC(C)(C)OC(=O)n1c(-c2ccc3c(c2)CC(NS(=O)(=O)c2ccccc2C(=O)O)C3)cc2ccccc21 (stereo not drawn)	5.47	–
CC(C)(C)OC(=O)n1c(-c2ccc3c(c2)CC(NS(=O)(=O)c2ccccc2)C3)cc2cc(OCc3ccccc3)ccc21 (stereo not drawn)	< 4.52	–
COc1ccccc1S(=O)(=O)NC1Cc2ccc(-c3cc4ccccc4n3C(=O)OC(C)(C)C)cc2C1 (stereo not drawn)	6.22	–
CC(C)(C)OC(=O)n1c(-c2ccc3c(c2)CC(NS(=O)(=O)c2ccccc2C(F)(F)F)C3)cc2ccccc21 (stereo not drawn)	6.10	–
CC(C)(C)OC(=O)n1c(-c2ccc3c(c2)CC(NS(=O)(=O)c2ccccc2Cl)C3)cc2ccccc21 (stereo not drawn)	6.12	–
CC(C)(C)OC(=O)n1c(-c2ccc3c(c2)CC(NC(=O)c2ccccc2)C3)cc2ccccc21 (stereo not drawn)	6.72	–
COc1ccccc1C(=O)NC1Cc2ccc(-c3cc4ccccc4n3C(=O)OC(C)(C)C)cc2C1 (stereo not drawn)	6.33	–
CC(C)(C)OC(=O)n1c(-c2ccc3c(c2)CC(NC(=O)c2ccccc2O)C3)cc2ccccc21 (stereo not drawn)	6.28	–
CC(C)(C)OC(=O)n1c(-c2ccc3c(c2)CC(NS(=O)(=O)Cc2ccccc2)C3)cc2ccccc21 (stereo not drawn)	6.28	–
CC(C)(C)OC(=O)n1c(-c2ccc3c(c2)CC(NC(=O)Nc2ccccc2)C3)cc2ccccc21 (stereo not drawn)	5.82	–
CCS(=O)(=O)NC1Cc2ccc(-c3cc4ccccc4n3C(=O)OC(C)(C)C)cc2C1 (stereo not drawn)	6.40	–
CC(C)(C)COC(=O)n1c(-c2ccc3c(c2)CC(NS(=O)(=O)c2ccccc2)C3)cc2ccccc21 (stereo not drawn)	5.85	–
CC(C)(C)OC(=O)n1c(-c2ccc3c(c2)CC(NS(=O)(=O)c2ccccc2C#N)C3)cc2ccccc21 (stereo not drawn)	7.22	–
CC(C)(C)OC(=O)n1c(-c2ccc3c(c2)CC(NS(=O)(=O)c2ccccc2F)C3)cc2ccccc21 (stereo not drawn)	7.00	–
O=C(CC1CC1)n1c(-c2ccc3c(c2)CC(NS(=O)(=O)c2ccccc2)C3)cc2ccccc21 (stereo not drawn)	5.94	–

SMILES	pEC50 [1]	pEC50 [2]
CC(C)(C)OC(=O)n1c(-c2ccc3c(c2)CC(NS(=O)(=O)c2ccccc2)C3)cc2c(OCc3ccccc3)cccc21 (stereo not drawn)	< 4.52	–
CC(C)(C)OC(=O)n1c(-c2ccc3c(c2)CC(NC(=O)c2ccccc2F)C3)cc2ccccc21 (stereo not drawn)	6.77	–
CC(C)(C)OC(=O)n1c(-c2ccc3c(c2)CC(NS(=O)(=O)c2ccccc2)C3)cc2c(O)cccc21 (stereo not drawn)	< 4.52	–
CC(C)(C)OC(=O)n1c(-c2ccc3c(c2)CC(NS(=O)(=O)c2ccccc2)C3)cc2cc(C#N)ccc21 (stereo not drawn)	4.59	–
CC(C)(C)OC(=O)n1c(-c2ccc3c(c2)CC(NS(=O)(=O)c2cccc(Cl)c2)C3)cc2ccccc21 (stereo not drawn)	5.74	–
Cc1ccccc1S(=O)(=O)NC1Cc2ccc(-c3cc4ccccc4n3C(=O)OC(C)(C)C)cc2C1 (stereo not drawn)	6.70	–
CCCCCC(=O)n1c(-c2ccc3c(c2)CC(NS(=O)(=O)c2ccccc2)C3)cc2ccccc21 (stereo not drawn)	5.68	–
O=S(=O)(NC1Cc2ccc(-c3cc4ccccc4n3Cc3ccccc3)cc2C1)c1ccccc1 (stereo not drawn)	< 4.52	–
Cc1ccc2cc(-c3ccc4c(c3)CC(NS(=O)(=O)c3ccccc3)C4)n(C(=O)OC(C)(C)C)c2c1 (stereo not drawn)	6.52	–
COC(=O)n1c(-c2ccc3c(c2)CC(NS(=O)(=O)c2ccccc2)C3)cc2ccccc21 (stereo not drawn)	< 4.52	–
CC(C)(C)OC(=O)n1c(-c2ccc3c(c2)CC(NS(=O)(=O)c2ccccc2)C3)cc2ccc(OCc3ccccc3)cc21 (stereo not drawn)	< 4.52	–
COc1ccc2c(c1)cc(-c1ccc3c(c1)CC(NS(=O)(=O)c1ccccc1)C3)n2C(=O)OC(C)(C)C (stereo not drawn)	4.55	–
COc1ccc2cc(-c3ccc4c(c3)CC(NS(=O)(=O)c3ccccc3)C4)n(C(=O)OC(C)(C)C)c2c1 (stereo not drawn)	5.80	–
CCc1ccc(S(=O)(=O)NC2Cc3ccc(-c4cc5ccccc5n4C(=O)OC(C)(C)C)cc3C2)cc1 (stereo not drawn)	6.19	–
Cc1noc(C)c1S(=O)(=O)NC1Cc2ccc(-c3cc4ccccc4n3C(=O)OC(C)(C)C)cc2C1 (stereo not drawn)	6.89	–
COc1ccc(Cn2c(-c3ccc4c(c3)CC(NS(=O)(=O)c3ccccc3)C4)cc3ccccc32)cc1 (stereo not drawn)	< 4.52	–
CC(C)(C)OC(=O)n1c(-c2ccc3c(c2)CC(NS(C)(=O)=O)C3)cc2ccccc21 (stereo not drawn)	6.68	–
O=S(=O)(c1ccccc1)N(CC(F)(F)F)c1ccc(C(O)(C(F)(F)F)C(F)(F)F)cc1 [T091317]	–	7.48
